Data as given in US20070292465A1, “Eutectic biocide compositions and formulations” (Clariant International, Ltd., priority 2006, published 2007).

Key:
[1] = 25° C., for reference purposes; cited from earlier work
[2] = Physical properties at freezing temperatures and on thawing (Example 3); format: physicochemical
Description: The following samples were tested to observe their physical properties at freezing temperatures:
After blending, such as by the method above, for example, all samples were allowed to cool to room temperature (20° C.). All samples stayed liquid at room temperature, except for blend 5.
All samples were placed in a freezer overnight ([…]).
All samples were placed back in the same freezer at the same temperature for an additional 2 days. In the BCP sample, there was-no change.
All samples were left at room temperature to thaw overnight.

[3] = Brookfield viscosity, SC4-18 spindle, 100 rpm; format: physicochemical
Description: The procedure used a Brookfield viscometer.
The apparatus used was a Brookfield viscometer, Programmable DV-II+Viscometer and a SC4-18 spindle.
The samples were tested at 100 rpm and at a range of temperatures, as shown in Table 4—Viscosity Measurement Results below.
All measurements were made in centipoise. For reference purposes, the viscosity of water, at 25° C. is 0.89 centipoise, and the viscosity of ethylene glycol at 25° C. is about 16 centipoise.

Row | Structure (SMILES) | viscosity (reference) [1] | physical state after overnight freezing ([2]; freezer overnight (23° C.)) | physical state after extended freezing ([2]; same freezer, same temperature, additional 2 days) | viscosity ([3]; 10 ° C.) | viscosity ([3]; 40 ° C.)
1 | OCCO [ethylene glycol] | about 16 centipoise | – | – | – | –
2 | O [water] | 0.89 centipoise | – | – | – | –
3 | Oc1ccc(Cl)cc1Cc1ccccc1 [BCP, o-benzyl p-chlorophenol] | – | frozen solid | no change | Crystalline | 29.4 centipoise
